This is an account of results in patent publication US9284304B2, “Substituted pyrimidines as toll-like receptor modulators” (JANSSEN SCIENCES IRELAND UC, priority 2012, dated 2016).

One test addresses T1, human TLR7 (hTLR7) (Homo sapiens, UniProt Q9NYK1).
T1 construct: expressed in transfected cells; host or cells: HEK293
T1 sequence (Q9NYK1 27-1049): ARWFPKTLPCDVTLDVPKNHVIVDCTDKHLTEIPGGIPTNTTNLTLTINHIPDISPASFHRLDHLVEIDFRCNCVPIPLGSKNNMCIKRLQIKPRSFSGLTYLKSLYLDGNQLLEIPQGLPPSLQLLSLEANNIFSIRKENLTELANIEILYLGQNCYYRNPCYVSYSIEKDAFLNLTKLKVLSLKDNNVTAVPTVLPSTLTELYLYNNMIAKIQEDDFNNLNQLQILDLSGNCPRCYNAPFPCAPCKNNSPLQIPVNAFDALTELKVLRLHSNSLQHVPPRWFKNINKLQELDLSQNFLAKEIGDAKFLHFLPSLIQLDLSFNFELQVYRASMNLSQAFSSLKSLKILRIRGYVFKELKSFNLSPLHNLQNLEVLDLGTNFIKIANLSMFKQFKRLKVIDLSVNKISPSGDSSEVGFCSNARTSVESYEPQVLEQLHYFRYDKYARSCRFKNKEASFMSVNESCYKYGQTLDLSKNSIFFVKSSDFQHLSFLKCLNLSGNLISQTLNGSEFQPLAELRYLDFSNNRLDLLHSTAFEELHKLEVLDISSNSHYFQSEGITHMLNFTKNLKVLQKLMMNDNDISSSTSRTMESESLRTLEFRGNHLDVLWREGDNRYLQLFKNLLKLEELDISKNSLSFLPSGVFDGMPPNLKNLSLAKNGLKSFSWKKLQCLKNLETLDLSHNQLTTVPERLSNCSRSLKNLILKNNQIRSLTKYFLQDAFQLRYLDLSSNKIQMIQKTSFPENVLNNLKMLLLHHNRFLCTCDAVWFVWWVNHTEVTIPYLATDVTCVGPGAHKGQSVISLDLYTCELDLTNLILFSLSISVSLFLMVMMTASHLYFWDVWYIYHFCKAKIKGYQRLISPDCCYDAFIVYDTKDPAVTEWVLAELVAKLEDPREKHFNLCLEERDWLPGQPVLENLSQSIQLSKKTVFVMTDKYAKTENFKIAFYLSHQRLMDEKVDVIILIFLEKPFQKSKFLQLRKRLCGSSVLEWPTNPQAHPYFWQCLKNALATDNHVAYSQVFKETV
Briefly: TLR7 cellular NFκB-luc reporter assay in transiently transfected HEK293 cells. The format is cell-based. Further details: unit not given here. The following applies: lowest effective concentration, wild type TLR7, 48 hours incubation. Here is the method: (§1) The ability of compounds to activate human TLR7 (hTLR7) and/or TLR8 (hTLR8) was assessed in a cellular reporter assay using HEK293 cells transiently transfected with a TLR7 or TLR8 expression vector and NFκB-luc reporter construct. In one instance the TLR expression construct expresses the respective wild type sequence or a mutant sequence comprising a deletion in the second leucine-rich repeat of the TLR. […] Briefly, HEK293 cells were grown in culture medium (DMEM supplemented with 10% FCS and 2 mM Glutamine). For transfection of cells in 10 cm dishes, cells were detached with Trypsin-EDTA, transfected with a mix of CMV-TLR7 or TLR8 plasmid (750 ng), NFκB-luc plasmid (375 ng) and a transfection reagent and incubated overnight at 37° C. in a humidified 5% CO2 atmosphere. Transfected cells were then detached with Trypsin-EDTA, washed in PBS and resuspended in medium to a density of 1.67×10^5 cells/mL. Thirty microliters of cells were then dispensed into each well in 384-well plates, where 10 μL of compound in 4% DMSO was already present. Following 48 hours incubation at 37° C., 5% CO2, the luciferase activity was determined by adding 15 μl of Steady Lite Plus substrate (Perkin Elmer) to each well and readout performed on a ViewLux ultraHTS microplate imager (Perkin Elmer). Dose response curves were generated from measurements performed in quadruplicates. Lowest effective concentrations (LEC) values, defined as the concentration that induces an effect which is at least two fold above the standard deviation of the assay, were determined for each compound.
A general note: A reporter such as luciferase makes a cellular process visible.

For another test, the target named is T2, human TLR8 (hTLR8) (Homo sapiens, UniProt Q9NR97).
T2 construct: expressed in transfected cells; host or cells: HEK293
T2 sequence (Q9NR97 27-1041): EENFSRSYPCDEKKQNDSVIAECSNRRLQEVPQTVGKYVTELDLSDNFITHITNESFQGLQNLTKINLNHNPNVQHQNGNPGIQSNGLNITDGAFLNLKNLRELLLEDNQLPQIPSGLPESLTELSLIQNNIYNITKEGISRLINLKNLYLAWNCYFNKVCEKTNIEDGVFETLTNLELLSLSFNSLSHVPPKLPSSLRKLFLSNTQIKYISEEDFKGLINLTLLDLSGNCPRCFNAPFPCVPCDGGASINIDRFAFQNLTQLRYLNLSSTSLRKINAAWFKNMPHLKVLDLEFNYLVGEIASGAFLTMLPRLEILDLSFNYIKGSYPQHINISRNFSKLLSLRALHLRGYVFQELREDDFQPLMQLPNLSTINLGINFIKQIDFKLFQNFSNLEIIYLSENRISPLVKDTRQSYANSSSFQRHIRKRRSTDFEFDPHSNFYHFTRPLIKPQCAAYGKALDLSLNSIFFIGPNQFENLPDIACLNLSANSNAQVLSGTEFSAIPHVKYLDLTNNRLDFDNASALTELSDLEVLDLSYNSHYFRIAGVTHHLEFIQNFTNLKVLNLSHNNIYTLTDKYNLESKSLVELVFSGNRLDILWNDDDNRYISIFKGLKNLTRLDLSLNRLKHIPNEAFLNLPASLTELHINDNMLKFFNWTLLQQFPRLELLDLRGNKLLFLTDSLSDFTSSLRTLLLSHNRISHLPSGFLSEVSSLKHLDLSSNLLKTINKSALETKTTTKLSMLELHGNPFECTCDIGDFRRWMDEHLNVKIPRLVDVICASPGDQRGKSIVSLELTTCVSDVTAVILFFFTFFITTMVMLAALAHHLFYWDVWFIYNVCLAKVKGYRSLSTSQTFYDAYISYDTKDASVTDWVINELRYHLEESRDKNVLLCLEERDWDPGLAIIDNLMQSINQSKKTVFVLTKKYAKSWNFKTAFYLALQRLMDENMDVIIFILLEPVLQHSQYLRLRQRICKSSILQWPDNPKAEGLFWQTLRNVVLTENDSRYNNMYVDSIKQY
Briefly: TLR8 cellular NFκB-luc reporter assay in transiently transfected HEK293 cells. Further details: unit not given here. The class given is cell-based. The following applies: lowest effective concentration, wild type TLR8, 48 hours incubation. The protocol:
as §1

Consider `CCCCNc1nc(N)ncc1CCc1cccnc1.Cl` [Example 5], for which the “hTLR7 wt (LEC)” value at human TLR7 (hTLR7) is recorded as 1.2. For the same compound, the “hTLR8 wt (LEC)” value on human TLR8 (hTLR8) worked out at 1.4.

With `CCCCNc1nc(N)ncc1CCc1ccccn1.Cl` [Example 6], the “hTLR7 wt (LEC)” value on human TLR7 (hTLR7) is recorded as 0.6. The “hTLR8 wt (LEC)” value at human TLR8 (hTLR8) stood at 1.6.

`CCCCNc1nc(N)ncc1CCc1ccc2ccccc2n1.Cl` [Example 7]: the “hTLR7 wt (LEC)” value at human TLR7 (hTLR7) was 0.5. Besides, the “hTLR8 wt (LEC)” value on human TLR8 (hTLR8) is 1.2.

In the case of `CCCCNc1nc(N)ncc1CCc1ccccc1OC.Cl` [Example 4], the “hTLR7 wt (LEC)” value at human TLR7 (hTLR7) is on record as 5. The “hTLR8 wt (LEC)” value on human TLR8 (hTLR8) is 13.

As for `CCCCNc1nc(N)ncc1CCc1cccs1.Cl` [Example 8], the “hTLR7 wt (LEC)” value on human TLR7 (hTLR7) amounted to 8.1. For the same compound, at human TLR8 (hTLR8), the “hTLR8 wt (LEC)” value was found to be 3.6.

With `CCCCNc1nc(N)ncc1CCc1ccc(OC)cc1OC.Cl` [Example 3], the “hTLR7 wt (LEC)” value at human TLR7 (hTLR7) came out at 2.4. At human TLR8 (hTLR8), the “hTLR8 wt (LEC)” value was found to be 12.

As for `CCCCNc1nc(N)ncc1CC.Cl` [Example 1], on human TLR7 (hTLR7), the “hTLR7 wt (LEC)” value is recorded as 2.4. In addition, on human TLR8 (hTLR8), the “hTLR8 wt (LEC)” value worked out at 1.3.

`CCCCNc1nc(N)ncc1CCc1ccccc1.Cl` [Example 2]: the “hTLR7 wt (LEC)” value on human TLR7 (hTLR7) is given as 6.7. The “hTLR8 wt (LEC)” value on human TLR8 (hTLR8) is 6.5.
